In patent US11554171B2, “Compounds and methods for the targeted degradation of bromodomain-containing proteins” (Arvinas Operations, Inc., priority 2015, dated 2023):

Tested on: c-myc in 22RV-1 cells
Test: Human c-myc ELISA assay
Type: cell-based
Conditions: Homo sapiens; for Emax: 22Rv1, 18 h, read-out: Degradation of BRD4: Maximum inhibition (%) c-Myc ELISA in 22RV1 cells; for DC50: 22Rv1, read-out: Degradation of BRD4: DC50 (uM) c-Myc ELISA in 22RV1 cells
Outline: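 22RV-1 cells treated 18 h with 8-point 1:3 compound dilutions (final top 300 nM or 1 μM, 0.1% DMSO). Cells lysed in RIPA buffer with protease/phosphatase inhibitors, and c-myc protein in cleared lysate quantified by ELISA against a standard curve. DC50 reported for c-myc suppression.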

SMILES | Emax | DC50
Cc1ncsc1-c1ccc([C@H](C)NC(=O)[C@@H]2C[C@@H](O)CN2C(=O)[C@@H](NC(=O)CN2CCC(O[C@H]3C[C@H](NC(=O)c4ccc5c6ncc(-c7c(C)noc7C)cc6n([C@H](c6ccccc6)C6CCOCC6)c5c4)C3)CC2)C(C)(C)C)cc1 [Example 365, (2S,4R)-1-[(2S)-3,3-dimethyl-2-(2-{4-[(1,3-trans)-3-[3-(dimethyl-1,2-oxazol-4-yl)-5-[(S)-oxan-4-yl(phenyl)methyl]-5H-pyrido[3,2-b]indole-7-amido]cyclobutoxy]piperidin-1-yl}acetamido)butanoyl]-4-hydroxy-N-[(1S)-1-[4-(4-methyl-1,3-thiazol-5-yl)phenyl]ethyl]pyrrolidine-2-carboxamide] | 100% | < 0.01 µM
Cc1ncsc1-c1ccc([C@H](C)NC(=O)[C@@H]2C[C@@H](O)CN2C(=O)[C@@H](C(C)C)n2cc(-c3cccc(O[C@H]4C[C@H](NC(=O)C[C@@H]5N=C(c6ccc(Cl)cc6)c6c(sc(C)c6C)-n6c(C)nnc65)C4)c3)cn2)cc1 [Example 244] | 95.5% | 0.01 to 0.1 µM
Cc1ncsc1-c1ccc([C@H](C)NC(=O)[C@@H]2C[C@@H](O)CN2C(=O)[C@@H](NC(=O)Cc2ccc(O[C@H]3C[C@H](NC(=O)C[C@@H]4N=C(c5ccc(Cl)cc5)c5c(sc(C)c5C)-n5c(C)nnc54)C3)cc2)C(C)C)cc1 [Example 280] | 95.4% | 0.01 to 0.1 µM
Cc1ncoc1-c1ccc(CNC(=O)[C@@H]2C[C@@H](O)CN2C(=O)[C@@H](C(C)C)n2cc(-c3ccnc(O[C@H]4C[C@@H](NC(=O)C[C@@H]5N=C(c6ccc(Cl)cc6)c6c(sc(C)c6C)-n6c(C)nnc65)C4)c3)cn2)cc1 [Example 294] | 43.4% | > 1 µM
Cc1ncsc1-c1ccc(CNC(=O)[C@@H]2C[C@@H](O)CN2C(=O)[C@@H](NC(=O)COCCOCCOCCCCOc2ccc3c(c2)c2c(C(N)=O)cc(-c4c(C)noc4C)cc2n3Cc2ccccc2)C(C)(C)C)cc1 [Example 152] | 95% | 0.01 to 0.1 µM
Cc1ncoc1-c1ccc(CNC(=O)[C@@H]2C[C@@H](O)CN2C(=O)[C@@H](NC(=O)COc2ccc(O[C@H]3C[C@@H](NC(=O)C[C@@H]4N=C(c5ccc(Cl)cc5)c5c(sc(C)c5C)-n5c(C)nnc54)C3)nc2)C(C)(C)C)cc1 [Example 258] | 87.5% | 0.01 to 0.1 µM
Cc1ncsc1-c1ccc([C@H](C)NC(=O)[C@@H]2C[C@@H](O)CN2C(=O)[C@@H](NC(=O)CN2CCN(C3CC4(C3)CN(C(=O)C[C@@H]3N=C(c5ccc(Cl)cc5)c5c(sc(C)c5C)-n5c(C)nnc53)C4)CC2)C(C)(C)C)cc1 [Example 360] | > 90% | 0.1 to 1 µM
Cc1ncsc1-c1ccc(CNC(=O)[C@@H]2C[C@@H](O)CN2C(=O)[C@@H](NC(=O)COCCOCCOCCNC(=O)CC2N=C(c3ccc(Cl)cc3)c3c(sc(C)c3C)-n3c(C)nnc32)C(C)(C)C)cc1 (some centres unmarked) [Example 98] | 100% | 0.01 to 0.1 µM
Cc1ncsc1-c1ccc([C@H](C)NC(=O)[C@@H]2C[C@@H](O)CN2C(=O)[C@@H](C(C)C)n2cc(-c3ccnc(N4CC(NC(=O)C[C@@H]5N=C(c6ccc(Cl)cc6)c6c(sc(C)c6C)-n6c(C)nnc65)C4)c3)cn2)cc1 [Example 247] | 24.1% | > 1 µM
Cc1ncsc1-c1ccc([C@H](C)NC(=O)[C@@H]2C[C@@H](O)CN2C(=O)[C@H](n2cc(-c3ccnc(O[C@H]4C[C@@H](NC(=O)C[C@@H]5N=C(c6ccc(Cl)cc6)c6c(sc(C)c6C)-n6c(C)nnc65)C4)c3)cn2)C(C)(C)C)cc1 [Example 239] | 39% | > 1 µM
Cc1ncsc1-c1ccc(CNC(=O)[C@@H]2C[C@@H](O)CN2C(=O)[C@@H](NC(=O)Cc2ccc(N3CC[C@H](NC(=O)C[C@@H]4N=C(c5ccc(Cl)cc5)c5c(sc(C)c5C)-n5c(C)nnc54)C3)cn2)C(C)(C)C)cc1 [Example 93] | 74.2% | 0.1 to 1 µM
Cc1ncsc1-c1ccc(CNC(=O)[C@@H]2C[C@@H](O)CN2C(=O)[C@@H](NC(=O)CCN2CCN(CCCNC(=O)C[C@@H]3N=C(c4ccc(Cl)cc4)c4c(sc(C)c4C)-n4c(C)nnc43)CC2)C(C)(C)C)cc1 [Example 102] | 34.5% | > 1 µM
Cc1ncsc1-c1ccc([C@H](C)NC(=O)[C@@H]2C[C@@H](O)CN2C(=O)[C@@H](NC(=O)/C=C/c2cc(O[C@@H](C)CNC(=O)C[C@@H]3N=C(c4ccc(Cl)cc4)c4c(sc(C)c4C)-n4c(C)nnc43)ccc2F)C(C)(C)C)cc1 [Example 196] | 94.5% | < 0.01 µM
Cc1ncsc1-c1ccc(CNC(=O)[C@@H]2C[C@@H](O)CN2C(=O)[C@@H](NC(=O)c2cccc(CCOCCNC(=O)C[C@@H]3N=C(c4ccc(Cl)cc4)c4c(sc(C)c4C)-n4c(C)nnc43)n2)C(C)(C)C)cc1 [Example 164] | 96% | 0.01 to 0.1 µM
Cc1sc2c(c1C)C(c1ccc(Cl)cc1)=N[C@@H](CC(=O)N[C@H]1C[C@@H](Oc3cc(-c4cnn([C@@H](C(=O)N5C[C@H](O)C[C@H]5C(=O)N[C@@H](C)c5ccc(-c6nccn6C)cc5)C(C)C)c4)ccn3)C1)c1nnc(C)n1-2 [Example 292] | 10% | > 1 µM
Cc1ncsc1-c1ccc(CNC(=O)[C@@H]2C[C@@H](O)CN2C(=O)[C@@H](NC(=O)COCCCCn2cc(-c3ccc([C@@H](C)NC(=O)C[C@@H]4N=C(c5ccc(Cl)cc5)c5c(sc(C)c5C)-n5c(C)nnc54)cc3)cn2)C(C)(C)C)cc1 [Example 33, (2S,4R)-1-[(2S)-2-{2-[4-(4-{4-[(1R)-1-{2-[(9S)-7-(4-chlorophenyl)-4,5,13-trimethyl-3-thia-1,8,11,12-tetraazatricyclo[8.3.0.0^2,^6]trideca-2(6),4,7,10,12-pentaen-9-yl]acetamido}ethyl]phenyl}-1H-pyrazol-1-yl)butoxy]acetamido}-3,3-dimethylbutanoyl]-4-hydroxy-N-{[4-(4-methyl-1,3-thiazol-5-yl)phenyl]methyl}pyrrolidine-2-carboxamide] | 100% | 0.01 to 0.1 µM
Cc1ncsc1-c1ccc([C@H](C)NC(=O)[C@@H]2C[C@@H](O)CN2C(=O)[C@@H](NC(=O)c2ccc(OCCCCNC(=O)C[C@@H]3N=C(c4ccc(Cl)cc4)c4c(sc(C)c4C)-n4c(C)nnc43)cn2)C(C)(C)C)cc1 [Example 115] | 100% | < 0.01 µM
Cc1ncsc1-c1ccc([C@H](C)NC(=O)[C@@H]2C[C@@H](O)CN2C(=O)[C@@H](NC(=O)/C=C/c2cc(F)cc(O[C@@H](C)CNC(=O)C[C@@H]3N=C(c4ccc(Cl)cc4)c4c(sc(C)c4C)-n4c(C)nnc43)c2)C(C)(C)C)cc1 [Example 201] | 94.1% | < 0.01 µM
Cc1ncsc1-c1ccc(CNC(=O)[C@@H]2C[C@@H](O)CN2C(=O)[C@@H](NC(=O)COCCCCNC(=O)C[C@@H]2N=C(c3ccc(Cl)cc3)c3c(sc(C)c3C)-n3c(C)nnc32)C(C)(C)C)cc1 [Example 45, (2S,4R)-1-[(2S)-2-[2-(4-{2-[(9S)-7-(4-chlorophenyl)-4,5,13-trimethyl-3-thia-1,8,11,12-tetraazatricyclo[8.3.0.0^2,^6]trideca-2(6),4,7,10,12-pentaen-9-yl]acetamido}butoxy)acetamido]-3,3-dimethylbutanoyl]-4-hydroxy-N-{[4-(4-methyl-1,3-thiazol-5-yl)phenyl]methyl}pyrrolidine-2-carboxamide] | 100% | 0.1 to 1 µM
Cc1ncsc1-c1ccc([C@H](C)NC(=O)[C@@H]2C[C@@H](O)CN2C(=O)[C@@H](NC(=O)CCc2ccnc(O[C@H]3C[C@H](NC(=O)C[C@@H]4N=C(c5ccc(Cl)cc5)c5c(sc(C)c5C)-n5c(C)nnc54)C3)c2)C(C)(C)C)cc1 [Example 192] | 93% | < 0.01 µM
Cc1ncsc1-c1ccc(CNC(=O)[C@@H]2C[C@@H](O)CN2C(=O)[C@@H](NC(=O)CCc2cccc(OCCNC(=O)C[C@@H]3N=C(c4ccc(Cl)cc4)c4c(sc(C)c4C)-n4c(C)nnc43)c2)C(C)(C)C)cc1 [Example 84] | 100% | < 0.01 µM
Cc1ncsc1-c1ccc(CNC(=O)[C@@H]2C[C@@H](O)CN2C(=O)[C@@H](NC(=O)COCCCS(=O)(=O)CCNC(=O)C[C@@H]2N=C(c3ccc(Cl)cc3)c3c(sc(C)c3C)-n3c(C)nnc32)C(C)(C)C)cc1 [Example 101] | 88.3% | 0.1 to 1 µM
Cc1ncsc1-c1ccc(CNC(=O)[C@@H]2C[C@@H](O)CN2C(=O)[C@@H](NC(=O)COCCCCOCCCOc2ccc(NC(=O)C[C@@H]3N=C(c4ccc(Cl)cc4)c4c(sc(C)c4C)-n4c(C)nnc43)cc2)C(C)(C)C)cc1 [Example 15] | 100% | 0.01 to 0.1 µM
Cc1sc2c(c1C)C(c1ccc(Cl)cc1)=N[C@@H](CC(=O)N[C@H]1C[C@H](Oc3ccc(CC(=O)N[C@H](C(=O)N4C[C@H](O)C[C@H]4C(=O)N[C@@H](C)c4ccc(S(C)(=O)=O)cc4)C(C)(C)C)cc3)C1)c1nnc(C)n1-2 [Example 307] | 15% | > 1 µM
Cc1ncsc1-c1ccc(CNC(=O)[C@@H]2C[C@@H](O)CN2C(=O)[C@@H](NC(=O)COCCOCCCOc2ccc([C@@H](C)NC(=O)C[C@@H]3N=C(c4ccc(Cl)cc4)c4c(sc(C)c4C)-n4c(C)nnc43)cc2)C(C)(C)C)cc1 [Example 29] | 96.8% | 0.01 to 0.1 µM
CNC[C@H](NC(=O)[C@@H]1C[C@@H](O)CN1C(=O)[C@@H](NC(=O)COCCCOCCNC(=O)C[C@@H]1N=C(c2ccc(Cl)cc2)c2c(sc(C)c2C)-n2c(C)nnc21)C(C)(C)C)c1ccc(-c2scnc2C)cc1 [Example 110] | 7.14% | > 1 µM
Cc1ncsc1-c1ccc([C@H](C)NC(=O)[C@@H]2C[C@@H](O)CN2C(=O)[C@@H](C(C)C)n2cc(-c3ccnc(O[C@H]4C[C@H](NC(=O)C[C@@H]5N=C(c6ccc(Cl)cc6)c6c(sc(C)c6C)-n6c(C)nnc65)C4)c3)cn2)cc1 [Example 220] | 66.4% | 0.1 to 1 µM
Cc1ncoc1-c1ccc(CNC(=O)[C@@H]2C[C@@H](O)CN2C(=O)[C@@H](NC(=O)COCCCOCCNC(=O)C[C@@H]2N=C(c3ccc(Cl)cc3)c3c(sc(C)c3C)-n3c(C)nnc32)C(C)(C)C)cc1 [Example 74] | 97% | 0.01 to 0.1 µM
